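Step 1: Grow cells in 96-well plates. Step 2: Expose to compound for 48 hours at 5 concentrations. Step 3: Interpolate endpoints linearly; if unreached, use highest concentration. GI50 = concentration required for 50% inhibition of growth.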 The source made the active and inactive calls. No stated cut-off is given here; in the data, active = GI50 up to about 1.1 µM and inactive = higher.
Tests used:
Experiment in all cases: growth of human tumour cells (NCI), 48 h
Hs-578T = system: Hs-578T
U-251 = system: U-251
LOX IMVI = system: LOX IMVI
OVCAR-3 = system: OVCAR-3
EKVX = system: EKVX
A498 = system: A498
CAKI-1 = system: CAKI-1
RPMI-8226 = system: RPMI-8226
PC-3 = system: PC-3
MDA-MB-231 = system: MDA-MB-231
SK-MEL-5 = system: SK-MEL-5
HT-29 = system: HT-29
SN12C = system: SN12C
SK-MEL-28 = system: SK-MEL-28
SF-295 = system: SF-295
HCT-15 = system: HCT-15
SF-268 = system: SF-268
HCC 2998 = system: HCC 2998
ACHN = system: ACHN
MDA-MB-435 = system: MDA-MB-435
HOP-62 = system: HOP-62
OVCAR-8 = system: OVCAR-8
SK-OV-3 = system: SK-OV-3
HL-60 = system: HL-60
HCT-116 = system: HCT-116
IGROV-1 = system: IGROV-1
786-0 = system: 786-0
SR = system: SR
SW-620 = system: SW-620
HOP-92 = system: HOP-92
KM12 = system: KM12
NCI/ADR-RES = system: NCI/ADR-RES
T47D = system: T47D
OVCAR-5 = system: OVCAR-5
TK-10 = system: TK-10
OVCAR-4 = system: OVCAR-4
DU-145 = system: DU-145
RXF 393 = system: RXF 393
SNB-75 = system: SNB-75
M14 = system: M14
UACC-257 = system: UACC-257
MDA-N = system: MDA-N
A549 = system: A549
NCI-H522 = system: NCI-H522
K562 = system: K562
Malme-3M = system: Malme-3M
MCF7 = system: MCF7
UACC-62 = system: UACC-62
SK-MEL-2 = system: SK-MEL-2
UO-31 = system: UO-31
NCI-H226 = system: NCI-H226
MOLT-4 = system: MOLT-4
CCRF-CEM = system: CCRF-CEM
NCI-H23 = system: NCI-H23
NCI-H460 = system: NCI-H460
COLO 205 = system: COLO 205
BT-549 = system: BT-549
SF-539 = system: SF-539
SNB-19 = system: SNB-19
LXFL 529 = system: LXFL 529
DMS-273 = system: DMS-273
M19-MEL = system: M19-MEL
DLD-1 = system: DLD-1
KM-20L2 = system: KM-20L2
SNB-78 = system: SNB-78

## CN(C)c1ccc(C(=O)NCCCCCCC(=O)NO)cc1
Hs-578T
  GI50: 0.9 µM (active)
U-251
  GI50: 0.486 µM (active)
LOX IMVI
  GI50: 0.272 µM (active)
OVCAR-3
  GI50: 0.519 µM (active)
EKVX
  GI50: 1.52 µM (inactive)
A498
  GI50: 0.711 µM (active)
CAKI-1
  GI50: 0.465 µM (active)
RPMI-8226
  GI50: 0.195 µM (active)
PC-3
  GI50: 0.53 µM (active)
MDA-MB-231
  GI50: 0.697 µM (active)
SK-MEL-5
  GI50: 0.289 µM (active)
HT-29
  GI50: 0.349 µM (active)
SN12C
  GI50: 0.378 µM (active)
SK-MEL-28
  GI50: 0.434 µM (active)
SF-295
  GI50: 0.326 µM (active)
HCT-15
  GI50: 1.27 µM
SF-268
  GI50: 0.435 µM (active)
HCC 2998
  GI50: 0.348 µM (active)
ACHN
  GI50: 0.67 µM (active)
MDA-MB-435
  GI50: 0.264 µM (active)
HOP-62
  GI50: 2.3 µM (inactive)
OVCAR-8
  GI50: 0.153 µM (active)
SK-OV-3
  GI50: 0.299 µM (active)
HL-60
  GI50: 0.397 µM (active)
HCT-116
  GI50: 0.169 µM (active)
IGROV-1
  GI50: 0.553 µM (active)
786-0
  GI50: 0.973 µM (active)
SR
  GI50: 0.205 µM (active)
SW-620
  GI50: 0.312 µM (active)
HOP-92
  GI50: 0.713 µM (active)
KM12
  GI50: 0.684 µM (active)
NCI/ADR-RES
  GI50: 0.14 µM (active)
T47D
  GI50: 0.216 µM (active)
OVCAR-5
  GI50: 0.218 µM (active)
TK-10
  GI50: 0.33 µM (active)
OVCAR-4
  GI50: 1.64 µM (inactive)
DU-145
  GI50: 0.335 µM (active)
RXF 393
  GI50: 0.303 µM (active)
SNB-75
  GI50: 0.251 µM (active)
M14
  GI50: 0.565 µM (active)
UACC-257
  GI50: 0.237 µM (active)
MDA-N
  GI50: 0.233 µM (active)
A549
  GI50: 0.514 µM (active)
NCI-H522
  GI50: 0.11 µM (active)
K562
  GI50: 0.337 µM (active)
Malme-3M
  GI50: 0.0948 µM (active)
MCF7
  GI50: 0.237 µM (active)
UACC-62
  GI50: 0.275 µM (active)
SK-MEL-2
  GI50: 0.19 µM (active)
UO-31
  GI50: 0.557 µM (active)
NCI-H226
  GI50: 2.75 µM (inactive)
MOLT-4
  GI50: 0.241 µM (active)
CCRF-CEM
  GI50: 0.238 µM (active)
NCI-H23
  GI50: 0.562 µM (active)
NCI-H460
  GI50: 0.417 µM (active)
COLO 205
  GI50: 0.33 µM (active)
BT-549
  GI50: 1.7 µM (inactive)
SF-539
  GI50: 0.589 µM (active)
SNB-19
  GI50: 2 µM (inactive)

## Nc1nc(=S)c2ncn(C3CC(O)C(CO)O3)c2[nH]1 (configuration not stated)
LXFL 529
  GI50: > 100 µM (inactive)

## Cc1ccc(C(=O)Oc2ccccc2)cc1/N=N/N(C)C
Hs-578T
  GI50: > 100 µM (inactive)
U-251
  GI50: > 100 µM (inactive)
LOX IMVI
  GI50: 59.8 µM (inactive)
OVCAR-3
  GI50: 43.4 µM (inactive)
EKVX
  GI50: > 100 µM (inactive)
CAKI-1
  GI50: > 100 µM (inactive)
RPMI-8226
  GI50: > 100 µM (inactive)
PC-3
  GI50: > 100 µM (inactive)
MDA-MB-231
  GI50: > 100 µM (inactive)
SK-MEL-5
  GI50: > 100 µM (inactive)
HT-29
  GI50: 37.1 µM (inactive)
SN12C
  GI50: > 100 µM (inactive)
SK-MEL-28
  GI50: > 100 µM (inactive)
SF-295
  GI50: > 69.3 µM (inactive)
HCT-15
  GI50: > 70.3 µM
SF-268
  GI50: > 87.7 µM (inactive)
HCC 2998
  GI50: > 100 µM (inactive)
ACHN
  GI50: > 100 µM (inactive)
MDA-MB-435
  GI50: > 100 µM (inactive)
HOP-62
  GI50: > 100 µM (inactive)
OVCAR-8
  GI50: > 100 µM (inactive)
SK-OV-3
  GI50: > 100 µM (inactive)
HL-60
  GI50: 78 µM (inactive)
HCT-116
  GI50: > 100 µM (inactive)
IGROV-1
  GI50: > 100 µM (inactive)
786-0
  GI50: > 100 µM (inactive)
SR
  GI50: > 100 µM (inactive)
SW-620
  GI50: > 100 µM (inactive)
HOP-92
  GI50: > 100 µM (inactive)
KM12
  GI50: 53.3 µM (inactive)
NCI/ADR-RES
  GI50: > 100 µM (inactive)
T47D
  GI50: 71.8 µM (inactive)
OVCAR-5
  GI50: > 100 µM (inactive)
DMS-273
  GI50: 61.9 µM (inactive)
TK-10
  GI50: > 100 µM (inactive)
OVCAR-4
  GI50: > 86.9 µM (inactive)
DU-145
  GI50: > 100 µM (inactive)
M14
  GI50: > 100 µM (inactive)
LXFL 529
  GI50: > 100 µM (inactive)
UACC-257
  GI50: > 100 µM (inactive)
MDA-N
  GI50: > 100 µM (inactive)
M19-MEL
  GI50: > 100 µM (inactive)
A549
  GI50: > 100 µM (inactive)
NCI-H522
  GI50: 42.7 µM (inactive)
K562
  GI50: 76.4 µM (inactive)
DLD-1
  GI50: > 100 µM (inactive)
Malme-3M
  GI50: > 100 µM (inactive)
MCF7
  GI50: 36.8 µM (inactive)
KM-20L2
  GI50: 38.3 µM (inactive)
UACC-62
  GI50: > 100 µM (inactive)
SK-MEL-2
  GI50: > 100 µM (inactive)
UO-31
  GI50: > 100 µM (inactive)
NCI-H226
  GI50: > 100 µM (inactive)
MOLT-4
  GI50: > 100 µM (inactive)
CCRF-CEM
  GI50: 91.8 µM (inactive)
NCI-H23
  GI50: > 58.6 µM (inactive)
NCI-H460
  GI50: > 100 µM (inactive)
COLO 205
  GI50: > 100 µM (inactive)
BT-549
  GI50: > 100 µM (inactive)
SNB-78
  GI50: > 100 µM (inactive)
SF-539
  GI50: > 100 µM (inactive)
SNB-19
  GI50: > 92.3 µM (inactive)
